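All cell lines were grown in 96-well plates and treated with compound for 48 hours. At the GI50, growth is halved.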 The source made the active and inactive calls. Cut-off read from the data, not from the text of the source: active = GI50 up to about 1.1 µM and inactive = higher.
Columns and labels:
Assay in all cases: growth of human tumour cells (NCI), 48 h
786-0 = tested on: 786-0
A549 = tested on: A549
COLO 205 = tested on: COLO 205
HCT-116 = tested on: HCT-116
HCT-15 = tested on: HCT-15
Hs-578T = tested on: Hs-578T
K562 = tested on: K562
MDA-MB-231 = tested on: MDA-MB-231
Malme-3M = tested on: Malme-3M
NCI/ADR-RES = tested on: NCI/ADR-RES
OVCAR-3 = tested on: OVCAR-3
OVCAR-8 = tested on: OVCAR-8
RPMI-8226 = tested on: RPMI-8226
SK-MEL-2 = tested on: SK-MEL-2
SW-620 = tested on: SW-620
U-251 = tested on: U-251
ACHN = tested on: ACHN
NCI-H460 = tested on: NCI-H460
PC-3 = tested on: PC-3

Compound | GI50 (786-0) | GI50 (A549) | GI50 (COLO 205) | GI50 (HCT-116) | GI50 (HCT-15) [µM] | GI50 (Hs-578T) | GI50 (K562) | GI50 (MDA-MB-231) | GI50 (Malme-3M) | GI50 (NCI/ADR-RES) | GI50 (OVCAR-3) | GI50 (OVCAR-8) | GI50 (RPMI-8226) | GI50 (SK-MEL-2) | GI50 (SW-620) | GI50 (U-251) | GI50 (ACHN) | GI50 (NCI-H460) | GI50 (PC-3)
Cc1ccc(S(=O)(=O)NC(=O)Nc2cc(Cl)c(S(N)(=O)=O)cc2S(N)(=O)=O)cc1 | > 100 µM (inactive) | > 100 µM (inactive) | > 100 µM (inactive) | > 100 µM (inactive) | > 100 | > 100 µM (inactive) | > 100 µM (inactive) | > 100 µM (inactive) | > 100 µM (inactive) | > 100 µM (inactive) | > 100 µM (inactive) | > 100 µM (inactive) | > 100 µM (inactive) | > 100 µM (inactive) | > 100 µM (inactive) | > 100 µM (inactive) |  |  | 
CCOc1ccc2nc3nc(O)nc(C)c3c(NC(C)(CO)CO)c2c1 | > 100 µM (inactive) | > 100 µM (inactive) | > 100 µM (inactive) | > 100 µM (inactive) | > 100 | > 100 µM (inactive) | > 100 µM (inactive) | > 100 µM (inactive) | > 100 µM (inactive) | > 100 µM (inactive) | > 100 µM (inactive) | > 100 µM (inactive) |  | > 100 µM (inactive) | > 100 µM (inactive) | > 100 µM (inactive) | > 100 µM (inactive) | > 100 µM (inactive) | > 100 µM (inactive)
c1ccc(N/N=C2\CC(c3ccccc3)Oc3ccccc32)cc1 (stereo unspecified) | 24.3 µM (inactive) | 53.7 µM (inactive) | 67.8 µM (inactive) | 32.1 µM (inactive) | 31 | 36.5 µM (inactive) | 41.9 µM (inactive) | 49.3 µM (inactive) | > 100 µM (inactive) | 43.1 µM (inactive) | 34.5 µM (inactive) | 39.6 µM (inactive) |  | 65.3 µM (inactive) | 30.5 µM (inactive) | 33.8 µM (inactive) | 43.5 µM (inactive) | 45 µM (inactive) | 47.1 µM (inactive)
COc1ccc2cc(C(C)C(O)c3cc(F)c(F)c(F)c3F)ccc2c1 (stereo unspecified) | > 100 µM (inactive) | > 100 µM (inactive) | > 100 µM (inactive) | > 100 µM (inactive) | > 100 |  | 30.8 µM (inactive) | > 100 µM (inactive) | > 100 µM (inactive) | 97.9 µM (inactive) | 98.6 µM (inactive) | 65.3 µM (inactive) | > 100 µM (inactive) |  | > 100 µM (inactive) | > 100 µM (inactive) | 42.9 µM (inactive) | > 100 µM (inactive) | > 100 µM (inactive)
C=C=C(C)C(=O)N(C(C)C)C(C)C | > 100 µM (inactive) | > 100 µM (inactive) | > 100 µM (inactive) | > 100 µM (inactive) | > 100 |  | > 100 µM (inactive) | > 100 µM (inactive) | > 100 µM (inactive) | > 100 µM (inactive) | > 100 µM (inactive) | > 100 µM (inactive) | > 100 µM (inactive) |  | > 100 µM (inactive) | > 100 µM (inactive) | > 100 µM (inactive) | > 100 µM (inactive) | > 100 µM (inactive)
CC1C2CC(CC2(C)O)C1(C)C (stereo unspecified) | > 100 µM (inactive) | > 100 µM (inactive) | > 100 µM (inactive) | > 100 µM (inactive) |  | > 100 µM (inactive) | > 100 µM (inactive) | > 100 µM (inactive) | > 100 µM (inactive) |  | > 100 µM (inactive) | > 100 µM (inactive) |  |  | > 100 µM (inactive) | > 100 µM (inactive) | > 100 µM (inactive) | > 100 µM (inactive) | > 100 µM (inactive)

— ChEMBL document CHEMBL1201862, “PubChem BioAssay data set” (2004)
